We go through 38 compounds from BindingDB's records for doi:10.7270/Q2N014XN (Srmlsc, 2007).

Structures are written as SMILES. Where a name gives a salt, the structure may show the parent alone.

The target of one assay is T1, Diphosphomevalonate decarboxylase (Streptococcus pneumoniae serotype 2 (strain D39 / NCTC 7466), UniProt A0A0H2ZN59).
T1 sequence (A0A0H2ZN59 whole entry): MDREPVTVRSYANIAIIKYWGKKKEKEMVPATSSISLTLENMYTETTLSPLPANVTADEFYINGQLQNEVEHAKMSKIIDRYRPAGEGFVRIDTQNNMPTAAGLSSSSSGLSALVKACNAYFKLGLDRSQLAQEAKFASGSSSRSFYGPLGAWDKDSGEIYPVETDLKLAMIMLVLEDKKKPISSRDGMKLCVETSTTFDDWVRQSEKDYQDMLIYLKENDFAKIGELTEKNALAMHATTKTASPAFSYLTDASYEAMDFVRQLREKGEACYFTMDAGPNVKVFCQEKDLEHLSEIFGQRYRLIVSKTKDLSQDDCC
Nature of the assay: S. pneumoniae DPM-DC inhibitor potency, dose response, biochemical, PK/LDH-coupled NADH fluorescence, hexokinase coupling counter-screen (AID 550).
Settings: not given
Background: The purpose of a counterscreen is to sort out artefacts and off-target activity.
Compound `Cc1cc(-c2ccccc2)nc(N2CCC(C(=O)NC(C)C)CC2)n1` [1-(4-Methyl-6-phenyl-pyrimidin-2-yl)-piperidine-4-carboxylic acid isopropylamide] gave an IC50 of 69.3 µM.

With `CC(=O)c1cccc(NC(=O)Nc2cccnc2)c1` [1-(3-acetylphenyl)-3-(3-pyridinyl)urea], the IC50 was over 10000 µM. Regarding `COc1ccc(-c2cc(C(F)(F)F)nc(SCCC(=O)N3CCN4CCCC4C3)n2)cc1` (stereo not drawn) [1-(3,4,6,7,8,8a-hexahydro-1H-pyrrolo[1,2-a]pyrazin-2-yl)-3-[4-(4-methoxyphenyl)-6-(trifluoromethyl)pyrimidin-2-yl]sulfanyl-propan-1-one], it took 376 µM to reach half-maximal inhibition (IC50).

For the compound `Cc1cc(=O)[nH]c(NC(N)=Nc2cccc3ccccc23)n1`, the IC50 was over 10000 µM. Regarding `CCCN1C(=O)C(NC(C)=O)c2cc(OC)ccc21` (stereo not drawn) [MLS000080624], the IC50 is over 10000 µM. Still for that read-out and setting: the result for `COc1cc(-c2nc3cnccc3n2C)cc(OC)c1OC` [1-Methyl-2-(3,4,5-trimethoxy-phenyl)-1H-imidazo[4,5-c]pyridine] reads over 10000 µM. `CC1=C(C(=O)OCC2CCCO2)C(c2ccncc2)C2C(=O)CCCC2=N1` (stereo not drawn) came in with an IC50 of 26.9 µM.

As to `Cc1ccccc1Cc1c(C)nc2c(C(=O)N3CCN(Cc4ccc5c(c4)OCO5)CC3)cnn2c1C` [3-{[4-(1,3-benzodioxol-5-ylmethyl)piperazin-1-yl]carbonyl}-5,7-dimethyl-6-(2-methylbenzyl)pyrazolo[1,5-a]pyrimidine], the IC50 was over 10000 µM. Still for that read-out and setting: under `COc1ccc(-c2nc(C(N)=O)c3[nH]c(=O)n(-c4cccc(C)c4)c3n2)c(OC)c1` [SMR000016861] stands 128 µM; under `Oc1nc(-c2ccncc2)nc2ccccc12` [MLS000056988], over 10000 µM; under `CC(C)C(OC(=O)CN1C(=O)COc2ccccc21)C(=O)NC1CCCC1` (stereo not drawn) [(3-Oxo-2,3-dihydro-benzo[1,4]oxazin-4-yl)-acetic acid 1-cyclopentylcarbamoyl-2-methyl-propyl ester], over 10000 µM. In turn, `COc1ccccc1-c1nnc2sc(-c3ccc(N(C)C)cc3)nn12` [4-[3-(2-methoxyphenyl)-[1,2,4]triazolo[3,4-b][1,3,4]thiadiazol-6-yl]-N,N-dimethyl-aniline] came in with an IC50 of 16.3 µM. Still for that read-out and setting: the result for `CCOC(=O)N1CCN(C(=O)c2cn(CC)c3cc(N4CCN(C)CC4)c(F)cc3c2=O)CC1` [4-[1-ethyl-6-fluoro-4-keto-7-(4-methylpiperazino)quinoline-3-carbonyl]piperazine-1-carboxylic acid ethyl ester;hydrochloride] reads 50.6 µM; that for `c1ccc(-c2nc3nonc3c3nc4ccccc4n23)cc1` [5-Phenyl-2-oxa-1,3,4,5a,10-pentaaza-cyclopenta[a]fluorene], over 10000 µM. On the same count and under the same terms, under `Cc1ccccc1-c1nc2cc(N)ccc2o1` [2-(2-methylphenyl)-1,3-benzoxazol-5-amine] stands 10.1 µM. On the same count and under the same terms, under `Cc1ccc(C2C3CN(C(C)C)CCC3=C(C#N)C(=N)C2(C#N)C#N)cc1` (stereo not drawn) [SMR000034220] stands 39.6 µM; under `O=C(Nc1ccc2nc(-c3cccs3)c(-c3cccs3)nc2c1)N1CCOCC1` [MLS000050299], 25.8 µM. With `Cc1cc(N2CCN(C(=O)c3ccco3)CC2)n2nc(-c3cccc(Cl)c3)cc2n1` [MLS000076302], the IC50 is over 10000 µM. The compound `CCN(CC)CCCN(Cc1cc2cc3c(cc2nc1O)OCCO3)C(=O)Nc1ccccc1` [SMR000004152] showed an IC50 of over 10000 µM. Same read-out and setting: under `C=CCNc1nc(N2CCCC2)nc2ccccc12` [MLS000066749] stands 66.6 µM. Still for that read-out and setting: under `COCCn1cc(C(=O)NCCCN2CCC(C)CC2)c2c3ccccc3n(C)c2c1=O` [1-keto-2-(2-methoxyethyl)-9-methyl-N-[3-(4-methylpiperidino)propyl]-beta-carboline-4-carboxamide] stands 27.2 µM; under `Cc1nc2oc3c(NCC4CCCO4)ncnc3c2c2c1COC(C)(C)C2` (stereo not drawn) [MLS000084527], 22.3 µM; under `Cc1oc2cc(O)ccc2c(=O)c1N1C(=O)c2ccccc2C1=O` [2-(2-methyl-7-oxidanyl-4-oxidanylidene-chromen-3-yl)isoindole-1,3-dione], 50.5 µM. For `CN(C)S(=O)(=O)c1cccc(C(=O)C2=C3SC=C(c4ccccc4)N3CC2)c1` [N,N-dimethyl-3-[(3-phenyl-5,6-dihydropyrrolo[2,1-b][1,3]thiazol-7-yl)carbonyl]benzenesulfonamide], the IC50 was over 10000 µM. The same measure, in the same setting: under `Cc1cc(-c2ccccc2)nc2cc(C(N)=O)nn12` [7-methyl-5-phenyl-2-pyrazolo[1,5-a]pyrimidinecarboxamide] stands over 10000 µM; under `Cc1noc(C)c1CSc1nc2ccccc2s1` [4-(1,3-benzothiazol-2-ylsulfanylmethyl)-3,5-dimethyl-1,2-oxazole], over 10000 µM; under `CCCc1nnc(NC(=O)CN2CCOCC2)s1` [2-(4-morpholinyl)-N-(5-propyl-1,3,4-thiadiazol-2-yl)acetamide;hydrochloride], over 10000 µM.

The compound `O=c1c2cc(N3CCOCC3)ccc2[nH]c(=S)n1CCCN1CCN(c2ccccc2F)CC1` [SMR000030978] had an IC50 of 58.7 µM.

`Cc1ccc(C)c(-c2nc3cc(N)ccc3o2)c1` [2-(2,5-Dimethyl-phenyl)-benzooxazol-5-ylamine] returned an IC50 of 6.06 µM. Compound `COc1ccc(-c2nnc(Nc3nc4c(OC)cccc4s3)o2)c(OC)c1` [5-(2,4-dimethoxyphenyl)-N-(4-methoxy-1,3-benzothiazol-2-yl)-1,3,4-oxadiazol-2-amine] displayed an IC50 of 6.62 µM. The same measure, in the same setting: under `O=C(c1cc2nc(-c3ccc(F)cc3)cc(C(F)(F)F)n2n1)N1CCCC1` [MLS000109312] stands 53 µM. Compound `COC(=O)Cc1sc(=O)[nH]c1Nc1ccccc1` [MLS000111966] registered an IC50 of over 10000 µM. Turning to `CN(C)[C@@H]1C(=O)C(C(N)=O)C(=O)[C@@]2(O)C(=O)C3C(=O)c4c(O)cccc4[C@@](C)(O)[C@H]3[C@H](O)[C@@H]12` (stereo partly drawn) [(2E,4S,4aR,5S,5aR,6S,12aS)-2-[azanyl(oxidanyl)methylidene]-4-(dimethylamino)-6-methyl-5,6,10,11,12a-pentakis(oxidanyl)-4,4a,5,5a-tetrahydrotetracene-1,3,12-trione], the IC50 stood at 36.8 µM. Consider `COC(=O)C1=C(C)OC(=N)C(C#N)C1c1cc(OC)c(OCC(N)=O)cc1Cl` (stereo not drawn) [6-Amino-4-(4-carbamoylmethoxy-2-chloro-5-methoxy-phenyl)-5-cyano-2-methyl-4H-pyran-3-carboxylic acid methyl ester], for which the IC50 was over 10000 µM. As for `COc1ccc(N2C(C)=CS/C2=C(/C#N)c2nnc(N3CCOCC3)n2-c2ccccc2)cc1` [(2Z)-2-[3-(4-methoxyphenyl)-4-methyl-1,3-thiazol-2-ylidene]-2-(5-morpholin-4-yl-4-phenyl-1,2,4-triazol-3-yl)acetonitrile], the IC50 was over 10000 µM. Still for that read-out and setting: the result for `COC(=O)c1ccccc1NC(=O)c1ccc2c(c1)C(=O)N(Cc1ccco1)C2=O` [2-[[2-(2-furfuryl)-1,3-diketo-isoindoline-5-carbonyl]amino]benzoic acid methyl ester] reads 53.9 µM; that for `O=S(=O)(Nc1ccc(C(F)(F)F)cc1)c1c[nH]cn1`, over 10000 µM.

Still in this assay, the particulars now being: inactive by the depositor's call.
In the case of `O=C(O)c1cccn2c(=O)c3ccccc3nc12` [11-Oxo-11H-pyrido[2,1-b]quinazoline-6-carboxylic acid], half-maximal inhibition (IC50) was put at 66.7 µM.

Usually IC50 stands for the point on the concentration scale where inhibition reaches its midpoint.
